Experiment [1] relates to Escherichia coli. Description: Induction of strand scission in pBR322 DNA in presence of ferrous ion.
For experiment [2], the system named is Escherichia coli. Description: Induction of strand scission in pBR322 DNA assessed as conversion from supercoiled form to nicked circular form at 50 uM in presence of copper.
Experiment [3] concerns Escherichia coli. As to the kind of experiment: Induction of strand scission in pBR322 DNA assessed as formation of linear duplex and nicked form at 100 uM in presence of copper.
The subject of experiment [4] is Escherichia coli. As to the kind of experiment: Induction of strand scission in pBR322 DNA in presence of copper.

Here are results for 1 compound from ChEMBL document CHEMBL1158687, “A dihydroflavonol glucoside from Commiphora africana that mediates DNA strand scission” (J Nat Prod, 2005).

Calls of active or inactive are those of the source. No cut-off for these calls is given here.

Take `CC(C)=CCc1c(O[C@@H]2O[C@H](CO)[C@@H](O)[C@H](O)[C@H]2O)cc(O)c2c1O[C@H](c1ccc(O)cc1)[C@@H](O)C2=O`: the result in the experiment on Escherichia coli [1] was inactive. The Activity is 62% in the experiment with Escherichia coli [2] and “Dose-dependent effect” in the experiment with Escherichia coli [4]. Further, in the experiment on Escherichia coli [3], the outcome was Active.
